This passage reports DC50 results from patent US20260295053A1, “COMPOUNDS FOR DEGRADATION AND INHIBITION OF KRAS (G12D) PROTEIN” (Shenzhen Ionova Life Science Co., Ltd., priority 2023, published 2026).

The target in the experiment is T1, KRAS (G12D) (Homo sapiens, UniProt P01116, G12D).
T1 construct: in-cell western with KRAS G12D antibody after 24 h
T1 sequence (P01116 1-188 isoform P01116-2 G12D): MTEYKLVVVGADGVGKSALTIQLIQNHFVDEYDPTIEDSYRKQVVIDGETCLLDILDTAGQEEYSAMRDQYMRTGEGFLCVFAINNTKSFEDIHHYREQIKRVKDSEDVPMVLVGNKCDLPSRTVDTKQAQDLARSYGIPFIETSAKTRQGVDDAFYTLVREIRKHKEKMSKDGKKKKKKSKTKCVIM
Nature of the experiment: KRAS (G12D) cellular degradation assay in AsPC-1 cells. In kind it is cell-based. The note with it: 24 hours, antibody fluorescence (Odyssey CLX), DC50 half-maximal degradation concentration. The procedure:
ASPC-1 and PK-59 cellular assays ASPC-1 (ATCC cat. CRL-1682) and PK-59 (Nanjing Cobioer, Cat. No. CBP61184) were used in KRAS cellular degradation, pERK inhibition and proliferation assays. The two cell lines were maintained following vendor's instructions. For monitoring KRAS (G12D) cellular degradation and pERK biomarker inhibition, cells were seeded into a 96-well plate with 22,000 and 16,000 cells/well for assays in ASPC-1 and PK-59, respectively. Cells were incubated at 37° C. with 5% CO2 and cell density was monitored until ^~90% confluency was reached. Compounds were serially diluted at a 1:3 ratio and dispensed into each well at final concentrations ranging from […] to 1.5 nM. After incubation for 24 hours, the culture media were removed and the cells were subjected to fixation, permeabilization and blocking (Intercept blocking buffer, Li-cor). For KRAS (G12D) degradation, the cells were treated with primary antibody (KRAS G12D antibody, Cell Signaling Technologies, Cat. No. CST14429) and for β-actin (β-actin mAb, Beyotime, Cat. No. AF-5001), and followed by secondary antibodies, Anti-rabbit IgG (H+L) (DyLight™ 800 4×PEG Conjugate) or IRDye® 680RD Goat anti-Mouse IgG. For pERK inhibition assay, cells were treated with primary antibodies for pERK (Phospho-p44/42 MAPK (Erk1/2) (Thr202/Tyr204) (D13.14.4E) XP® Rabbit mAb, Cell Signaling Technologies, Cat. No. CST-4370) and β-actin (β-actin mAb, Beyotime, Cat. No. AF-5001), and followed by secondary antibodies, Anti-rabbit IgG (H+L) (DyLight™ 800 4×PEG Conjugate) or IRDye® 680RD Goat anti-Mouse IgG. Fluorescence signals were read on Odyssey CLX instrument. For cell proliferation assays, cells were seeded into a 96-well plate at 3,500 and 800 cells/well for assays in ASPC-1 and PK-59, respectively. Cells were incubated at 37° C. with 5% CO2 for overnight. Compounds were serially diluted at a 1:3 ratio and dispensed into each well at final concentrations ranging from […] to 1.5 nM. After incubation for 6 days, cell viability reagent (CellTiter Glo, Promega, Cat. No. G7573) was added to each well and luminescence was recorded on Molecular Devices Spectramax iD3 instrument. IC50, half-maximal inhibitory concentration for pERK inhibition or cell proliferation, and DC50, half-maximal degradation concentration in KRAS (G12D) cellular degradation were determined by fitting the corresponding dose response curves using GraphPad Prism software.
Wherein “A” means the value <10 nM, “B” means 10 nM<the value <100 nM, “C” means 100 nM<the value <1000 nM, and “D” means the value >1000 nM, in which, the value means the value of DC50 or IC50. NT means not tested.
Broadly, the DC50 is the midpoint of the concentration-degradation curve. Higher therefore signals a less potent degrader. In the case of `CCn1nccc1-c1ccc([C@H](CO)NC(=O)[C@@H]2C[C@@H](O)CN2C(=O)[C@H](C(C)C)n2cc(-c3ccc(COc4c(-c5c(C)c(F)cc6[nH]ncc56)c(C5CC5)cc5c(N6C[C@@H]7CN[C@@H](C7)C6)nc(OC[C@H](C)OC)nc45)cc3)nn2)cc1` [Example 229, (2S,4R)-1-((2S)-2-(4-(4-(((4-((1S,5S)-3,6-diazabicyclo[3.2.1]octan-3-yl)-6-cyclopropyl-7-(6-fluoro-5-methyl-1H-indazol-4-yl)-2-((S)-2-methoxypropoxy)quinazolin-8-yl)oxy)methyl)phenyl)-1H-1,2,3-triazol-1-yl)-3-methylbutanoyl)-N—((R)-1-(4-(1-ethyl-1H-pyrazol-5-yl)phenyl)-2-hydroxyethyl)-4-hydroxypyrrolidine-2-carboxamide], the DC50 fell in the range of 10 to 100 nM. As for `CO[C@@H](C)COc1nc(N2C[C@@H]3C[C@H]2CN3)c2cc(C3CC3)c(-c3c(C)c(F)cc4[nH]ncc34)c(OCc3ccc(-c4cn([C@H](C(=O)N5C[C@H](O)C[C@H]5C(=O)N[C@H](C#Cc5cccc6sc(C)nc56)CO)C(C)C)nn4)cc3)c2n1` [Example 117, (2S,4R)-1-((2S)-2-(4-(4-(((4-((1S,4S)-2,5-diazabicyclo[2.2.1]heptan-2-yl)-6-cyclopropyl-7-(6-fluoro-5-methyl-1H-indazol-4-yl)-2-((S)-2-methoxypropoxy)quinazolin-8-yl)oxy)methyl)phenyl)-1H-1,2,3-triazol-1-yl)-3-methylbutanoyl)-4-hydroxy-N—((R)-1-hydroxy-4-(2-methylbenzo[d]thiazol-4-yl)but-3-yn-2-yl)pyrrolidine-2-carboxamide], the DC50 was 10 to 100 nM. For `CCn1nccc1-c1ccc([C@H](CO)NC(=O)[C@@H]2C[C@@H](O)CN2C(=O)[C@H](C(C)C)n2cc(-c3ccc(COc4c(-c5c(C)c(F)cc6[nH]ncc56)c(C5CC5)cc5c(N6CC7CCC(C6)N7)nc(OC[C@H](C)OC)nc45)cc3)nn2)cc1` (single isomer, unassigned) [Example 13B], the 50% degradation concentration (DC50) is above 1000 nM. In the case of `CO[C@@H](C)COc1nc(N2C[C@@H]3C[C@H]2CN3)c2cc(C3CC3)c(-c3c(C)c(F)cc4[nH]ncc34)c(OCc3ccc(-c4cn([C@H](C(=O)N5C[C@H](O)C[C@H]5C(=O)N[C@H](C#Cc5cnccc5Cl)CO)C(C)C)nn4)cc3)c2n1` [Example 108, (2S,4R)-1-((2S)-2-(4-(4-(((4-((1S,4S)-2,5-diazabicyclo[2.2.1]heptan-2-yl)-6-cyclopropyl-7-(6-fluoro-5-methyl-1H-indazol-4-yl)-2-((S)-2-methoxypropoxy)quinazolin-8-yl)oxy)methyl)phenyl)-1H-1,2,3-triazol-1-yl)-3-methylbutanoyl)-N—((R)-4-(4-chloropyridin-3-yl)-1-hydroxybut-3-yn-2-yl)-4-hydroxypyrrolidine-2-carboxamide], the DC50 was 10 to 100 nM. The molecule `CCn1nccc1-c1ccc([C@H](CO)NC(=O)[C@@H]2C[C@@H](O)CN2C(=O)[C@H](C(C)C)n2cc(-c3ccc(COc4c(-c5c(C)c(F)cc6[nH]ncc56)c(C5CC5)cc5c(N6C[C@H]7CN[C@H](C7)C6)nc(OC[C@H](C)OC)nc45)cc3)nn2)cc1` [Example 222, (2S,4R)-1-((2S)-2-(4-(4-(((4-((1R,5R)-3,6-diazabicyclo[3.2.1]octan-3-yl)-6-cyclopropyl-7-(6-fluoro-5-methyl-1H-indazol-4-yl)-2-((S)-2-methoxypropoxy)quinazolin-8-yl)oxy)methyl)phenyl)-1H-1,2,3-triazol-1-yl)-3-methylbutanoyl)-N—((R)-1-(4-(1-ethyl-1H-pyrazol-5-yl)phenyl)-2-hydroxyethyl)-4-hydroxypyrrolidine-2-carboxamide] returned a half-maximal degradation concentration (DC50) of 10 to 100 nM.

Turning to `CCn1nccc1-c1ccc([C@H](CO)NC(=O)[C@@H]2C[C@@H](O)CN2C(=O)[C@H](C(C)C)n2cc(-c3ccc(COc4c(-c5c(C)c(F)cc6[nH]ncc56)c(C5CC5)cc5c(N6CCNCCC6C)nc(OC[C@H](C)OC)nc45)cc3)nn2)cc1` (stereo in doubt) [Example 153, (2S,4R)-1-((2S)-2-(4-(4-(((6-cyclopropyl-7-(6-fluoro-5-methyl-1H-indazol-4-yl)-2-((S)-2-methoxypropoxy)-4-((S)-7-methyl-1,4-diazepan-1-yl)quinazolin-8-yl)oxy)methyl)phenyl)-1H-1,2,3-triazol-1-yl)-3-methylbutanoyl)-N—((R)-1-(4-(1-ethyl-1H-pyrazol-5-yl)phenyl)-2-hydroxyethyl)-4-hydroxypyrrolidine-2-carboxamide], the DC50 was 10 to 100 nM.

Turning to `CCn1nccc1-c1ccc([C@@H](NC(=O)[C@@H]2C[C@@H](O)CN2C(=O)[C@H](C(C)C)n2cc(-c3ccc(COc4c(-c5c(C)c(F)cc6[nH]ncc56)c(C5CC5)cc5c(N6C[C@@H]7C[C@H]6CN7)nc(O[C@H]6C[C@H](OC)C6)nc45)cc3)nn2)[C@H](C)O)nc1` [Example 200, (2S,4R)-1-((2S)-2-(4-(4-(((4-((1S,4S)-2,5-diazabicyclo[2.2.1]heptan-2-yl)-6-cyclopropyl-7-(6-fluoro-5-methyl-1H-indazol-4-yl)-2-((1r,3S)-3-methoxycyclobutoxy)quinazolin-8-yl)oxy)methyl)phenyl)-1H-1,2,3-triazol-1-yl)-3-methylbutanoyl)-N-((1R,2S)-1-(5-(1-ethyl-1H-pyrazol-5-yl)pyridin-2-yl)-2-hydroxypropyl)-4-hydroxypyrrolidine-2-carboxamide], the DC50 is below 10 nM. Regarding `CCn1nccc1-c1ccc([C@H](CO)NC(=O)[C@@H]2C[C@@H](O)CN2C(=O)[C@H](C(C)C)n2cc(-c3ccc(COc4c(-c5c(C)c(F)cc6[nH]ncc56)c(C5CC5)cc5c(N6CC7CNCC7C6)nc(OC[C@H](C)OC)nc45)cc3)nn2)cc1` (stereo partly drawn) [Example 227, (2S,4R)-1-((2S)-2-(4-(4-(((6-cyclopropyl-7-(6-fluoro-5-methyl-1H-indazol-4-yl)-4-(hexahydropyrrolo[3,4-c]pyrrol-2(1H)-yl)-2-((S)-2-methoxypropoxy)quinazolin-8-yl)oxy)methyl)phenyl)-1H-1,2,3-triazol-1-yl)-3-methylbutanoyl)-N—((R)-1-(4-(1-ethyl-1H-pyrazol-5-yl)phenyl)-2-hydroxyethyl)-4-hydroxypyrrolidine-2-carboxamide], the DC50 is 10 to 100 nM. `CO[C@@H]1CC[C@@H](Oc2nc(N3C[C@@H]4C[C@H]3CN4)c3cc(C4CC4)c(-c4c(C)c(F)cc5[nH]ncc45)c(OCc4ccc(-c5cn([C@H](C(=O)N6C[C@H](O)C[C@H]6C(=O)N[C@H](c6ccc(-c7scnc7C)cc6)[C@H](C)O)C(C)C)nn5)cc4)c3n2)C1` [Example 212] returned a DC50 below 10 nM. In turn, `CO[C@@H](C)COc1nc(N2C[C@@H]3C[C@H]2CN3)c2cc(C3CC3)c(-c3c(C)c(F)cc4[nH]ncc34)c(OCc3ccc(-c4cn([C@H](C(=O)N5C[C@H](O)C[C@H]5C(=O)N[C@H](C#Cc5cncc6nn(C)cc56)CO)C(C)C)nn4)cc3)c2n1` [Example 185, (2S,4R)-1-((2S)-2-(4-(4-(((4-((1S,4S)-2,5-diazabicyclo[2.2.1]heptan-2-yl)-6-cyclopropyl-7-(6-fluoro-5-methyl-1H-indazol-4-yl)-2-((S)-2-methoxypropoxy)quinazolin-8-yl)oxy)methyl)phenyl)-1H-1,2,3-triazol-1l-yl)-3-methylbutanoyl)-4-hydroxy-N—((R)-1-hydroxy-4-(2-methyl-2H-pyrazolo[3,4-c]pyridin-4-yl)but-3-yn-2-yl)pyrrolidine-2-carboxamide] registered a DC50 of 10 to 100 nM.
